Measurements as given in US4835157A, “Thieno- and furopyrimidine-2,4-dione piperidine derivatives as serotonin antagonists and alpha adrenergic blocking agents” (Ortho Pharmaceutical Corporation, priority 1988, dated 1989).
Read-outs that look alike come from different tables or passages of the source.

Legend:
serotonin receptors = experiment: Inhibition of 5-HTP-Induced Head Twitching; format: in vivo; settings: male CD1 mice; for Inhibit. of 5-HTP-Head Twitch (result in words): @ 10 (mg/kg, p.o.); for Inhibit. of 5-HTP-Head Twitch ED50: 5-HTP 160 mg/kg i.v. after one hour
Procedure: Inhibition of 5-HTP-Induced Head Twitching
This test detects compounds with antagonistic activity of serotonin receptors in vivo, and is a modified procedure of Corne, Pickering and Warner, Brit. J. Pharmacol. 20, 106 (1963). Groups of male CD1 mice were fasted overnight but allowed water ad libitum. They were deprived of water during the course of the experiment. The mice were weighed and treated orally or parenterally with the test compound in a dose volume of 10 ml/kg. Doses of test substance were calculated based upon the active compound. Substances for oral administration were dissolved or suspended in a 0.5% aqueous methylcellulose (15 centipoises) vehicle containing 4 ml of Tween 80/l.
A dose of 160 mg/kg of L-5-hydroxytryptophan (5-HTP) was administered i.v. in a dose volume of 5 ml/kg after one hour. The test mouse was restrained in a rodent restrainer that allowed the tail to extend out the back. The tail was then placed in tepid (but not scalding) water for approximately 10 seconds to soften the skin and dilate the tail vein. A 1 ml syringe and 25 gauge (5/8 inch) needle was used to administer the 5-HTP solution into one of the lateral tail veins.
A timer was started after dosing with 5-HTP to the first animal of the test group. […] A head twitch involves the head, neck and ears and has the appearance of an exaggerated pinal reflex. The number of head twitches for each individual vehicle-treated mouse were recorded to establish a historical baseline.
The active compounds in the test block the twitch response (the response rated all or none).

5HT1A receptor = molecular target: T1, 5HT1A receptor (Rattus norvegicus, UniProt P19327); experiment: Brain Serotonin (5HT1A) radioreceptor Assay (3H-8-OH DPAT displacement, rat frontal cortex membranes); format: binding; settings: for IC50: rat frontal cortex membranes, pH 7.4, read-out: Brain 5-HT1 Receptor IC50
T1 construct: Membrane fragments were prepared from prefrontal cortex; from tissue; host or cells: prefrontal/frontal cortex of female rats (about 150 g), membrane fragments
T1 sequence (P19327 1-422): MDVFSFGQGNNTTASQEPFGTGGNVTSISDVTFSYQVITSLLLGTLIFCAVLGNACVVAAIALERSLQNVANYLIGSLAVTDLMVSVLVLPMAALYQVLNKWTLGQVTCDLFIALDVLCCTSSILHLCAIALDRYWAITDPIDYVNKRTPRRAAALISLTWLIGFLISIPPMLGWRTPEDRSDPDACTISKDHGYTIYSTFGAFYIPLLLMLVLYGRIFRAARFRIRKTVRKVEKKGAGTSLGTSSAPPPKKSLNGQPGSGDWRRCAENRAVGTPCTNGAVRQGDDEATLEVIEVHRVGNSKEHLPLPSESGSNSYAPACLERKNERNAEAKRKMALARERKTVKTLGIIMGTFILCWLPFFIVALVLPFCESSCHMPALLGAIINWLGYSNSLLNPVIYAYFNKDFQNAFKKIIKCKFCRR
Procedure: Brain Serotonin (5HT1A) radioreceptor Assay
The text objects of this procedure were rat frontal cortex membranes. Membrane fragments were prepared from prefrontal cortex disected from brains obtained from female rats (≈150 g). The 5HT1A sites were labeled with ^3 H-8-OH dipropylaminotetralin (8-OH-DPAT). Membrane fragments, ^3 H-8-OH DPAT, TRIS buffer (pH 7.4) and unlabeled compound were incubated for 10 minutes at 37° C. and then for 10 minutes at 4° C. Separation of bound from unbound ^3 H-8-OH DPAT was performed by vacuum filtration on a glass fiber disc. The ability of a compound to compete with ^3 H-8-OH DPAT for binding sites is a measure of the affinity of the compound for the 5HT1A receptor. Specific binding was determined by the difference between total counts bound and the counts bound in the presence of […] 5-hydroxytryptamine.

5HT2 [1] = molecular target: T2, 5HT2 (Rattus norvegicus, UniProt P14842); experiment: Brain Serotonin (5-HT2) Radioreceptor Assay (3H-ketanserin displacement, rat frontal cortex membranes); format: binding; set-up: dissected from brains obtained from female rats; from tissue; host or cells: frontal cortex of female rats (about 150 g), membrane fragments; settings: 15 min at 37° C
Procedure: Brain Serotonin (5-HT2) Radioreceptor Assay
The test objects of this Example were rat frontal cortex membranes. Mebrane fragments were prepared from the frontal cortex dissected from brains obtained from female rats (≈150 g). […] Compound bound to the receptor site was separated from the remaining unbound compound by vacuum filtration. […] Specific binding was determined by the difference between total counts bound and counts bound in the presence of 10^-6 M methysergide.

[2] = system: Serotonin-Induced Smooth Muscle Contractions (rabbit thoracic aorta); experiment: Inhibition of Serotonin-Induced Smooth Muscle Contractions (isolated thoracic aorta strips); format: cell-based; settings: Oryctolagus cuniculus, 10 min, concentration shifting the serotonin dose curve 10x to the right, 10 min preincubation, read-out: 5-HT-Induced Smooth Muscle Contraction DR10
Procedure: Inhibition of Serotonin-Induced Smooth Muscle Contractions
The test objects of this Example were canines and rabbits. Rabbits were sacrificed by T-61 injection and the thoracic aorta was removed immediately. The aorta was placed in warmed, oxygenated Krebs-Henseleit buffer. After the tissue was cleaned, a 2-3 mm wide strip was cut helically from each aorta. A strip of approximately 5 cm was suspended in Krebs-Henseleit buffer at 37° C. in a 25 ml tissue bath and the tissues equilibrated at an initial resting tension of 4 g for 90-120 minutes. An initial serotonin dose curve, 0.01-10 μM was then done on each tissue, followed by a 60 minute washout and reequilibration. The test drug was then added for a 10 minute preincubation and another serotonin dose curve was done using 0.01-100 μM.
Results are expressed as DR10 values. This is the concentration of the compound required to shift the serotonin dose curve 10x to the right, i.e., the concentration of antagonist at which the concentration of serotonin required for 50% maximal contraction is increased ten-fold.

[3] = system: serotonin-induced platelet aggregation; experiment: Platelet Aggregation Assay (serotonin-induced); format: cell-based; settings: Platelet; human plasma, serotonin 5 μM
Procedure: Platelet Aggegation Assay
Human blood was collected into tubes containing sodium citrate. The plasma was separated by centrifugation and was used as the source of platelets. Serotonin (5 μM) was used as the agonist to induce platelet aggregation. A control aggregation curve (as measured by the decrease in absorbance in transmitted light) was obtained in the presence of serotonin and in the absence of test compound. The test compound was added to an identical sample in a cuvette for one minute before addition of serotonin to yield the experimental curve.

5HT2 [4] = molecular target: T2, 5HT2; experiment: 5HT2 Blockade in vivo (antagonism of 5HT induced pressor responses); set-up: Spontaneously hypertensive rats were anesthetized with sodium pentobarbital; from tissue; host or cells: whole animal: anesthetized spontaneously hypertensive rats (vasculature); species or system spontaneously hypertensive rats; settings: for ED50: rat, iv, read-out: 5-HT-Induced Pressor Response ED50
Procedure: Antagonism of 5HT induced pressor responses was used to assess 5HT2 blockade in vivo. Spontaneously hypertensive rats were anesthetized with sodium pentobarbital (50 mg/kg, i.p.). The right carotid artery and vein were cannulated for pressure recording and drug injection, respectively. The trachea was cannulated, the rat placed on a respirator and ventilated with room air at 50-60 breaths/minute. Rats were pretreated with prazosin hydrochloride (1 mg/kg, i.v., blous) and pentolinium tartrate (5 mg/kg, i.v., bolus). After 10 minutes equilibration, the rat was challenged with 5HT (100 μg/kg) which elevates mean arterial pressure (MAP) 60-100 mmHg; non-responsive rats were discarded.
After a baseline had been reestablished, bolus injections of 5HT (100 μg/kg, i.v.) were given and the MAP responses were evaluated both pre- and post-drug administration. 5HT challenges were repeated 10 minutes after each dose of antagonist. Up to three cumulative doses of the antagonist were given to a single animal.

[5] = system: alpha1 adrenergic receptor; experiment: Alpha1 Blockade in vivo (inhibition of phenylephrine pressor response); set-up: species or system spontaneously hypertensive rats (SHR); settings: anesthetized, vagotomized SHR; i.v.
Procedure: The potency of these compounds as alpha1 adrenergic antagonists was determined using the following procedure: adult male spontaneously hypertensive rats (SHR) were anesthetized and bilaterally vagotomized. A carotid artery and jugular vein were cannulated for monitoring mean arterial blood pressure and drug administration, respectively. The percent inhibition of alpha1 adrenergic receptor activation was quantified by measuring pressor responses to phenylephrine before and after antagonist treatment. […] Compounds were tested to the limits of their solubility for intravenous administration.

[6] = @ 1 μM, 3H-8-OH DPAT, read-out: Brain 5-HT1 Receptor % displaced (% inhibition)

T2 sequence (P14842 whole entry, the tested form may be a part): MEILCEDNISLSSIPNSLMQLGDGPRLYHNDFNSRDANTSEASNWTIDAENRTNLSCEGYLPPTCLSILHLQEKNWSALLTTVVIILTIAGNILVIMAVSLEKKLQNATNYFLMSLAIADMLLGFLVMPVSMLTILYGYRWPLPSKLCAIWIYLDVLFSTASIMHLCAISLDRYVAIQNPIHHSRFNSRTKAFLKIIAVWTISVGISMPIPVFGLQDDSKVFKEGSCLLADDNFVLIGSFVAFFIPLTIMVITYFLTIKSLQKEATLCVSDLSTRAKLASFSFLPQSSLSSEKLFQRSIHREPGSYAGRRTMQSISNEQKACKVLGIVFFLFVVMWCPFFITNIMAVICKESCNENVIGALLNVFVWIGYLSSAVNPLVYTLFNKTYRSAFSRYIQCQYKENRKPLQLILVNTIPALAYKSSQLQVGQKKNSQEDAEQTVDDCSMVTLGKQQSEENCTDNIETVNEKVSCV

SMILES: CCCCn1c(=O)n(CCN2CCC(C(=O)c3ccc(F)cc3)CC2)c(=O)c2ccsc21 [Example 18, 1-Butyl-3-[2-[4-(4-fluorobenzoyl)piperidin-1-yl]ethyl]thieno[2,3-d]pyrimidine-2,4-dione]
- Inhibit. of 5-HTP-Head Twitch (result in words) (serotonin receptors): Inact.
- inhibition at 1 µM (5HT1A receptor; [6]): 17%
- IC50 (5HT2 [1]): 23 nM

SMILES: Cc1scc2[nH]c(=O)n(CCN3CCC(C(=O)c4ccc(F)cc4)CC3)c(=O)c12 [Example 16, 3-[2-[4-(4-Fluorobenzoyl)piperidin-1-yl]ethyl]-5-methylthieno[3,4-d]pyrimidine-2,4-dione]
- IC (10-fold shift) [2]: 0.019 µM
- IC50 [3]: 380 nM
- ED50 (5HT2 [4]): 0.119 mg/kg
- inhibition at 1 µM (5HT1A receptor; [6]): 2%
- IC50 (5HT2 [1]): 7 nM

SMILES: CC(C)(C)C(=O)n1c(=O)n(CCN2CCC(=C(c3ccc(F)cc3)c3ccc(F)cc3)CC2)c(=O)c2cscc21 [Example 7, 3-[2-[4-[Bis(4-fluorophenyl)methylene]piperidin-1-yl]ethyl]-1-(2,2-dimethyl-1-oxopropyl)thieno[3,4-d]pyrimidine-2,4-dione]
- IC (10-fold shift) [2]: 0.02 µM
- IC50 [3]: 2500 nM
- ED50 (5HT2 [4]): 0.038 mg/kg
- inhibition at 1 µM (5HT1A receptor; [6]): 3%
- IC50 (5HT2 [1]): 0.31 nM

SMILES: Cn1c(=O)n(CCN2CCC(=C(c3ccc(F)cc3)c3ccc(F)cc3)CC2)c(=O)c2cscc21 [Example 23]
- IC (10-fold shift) [2]: 0.066 µM
- IC50 [3]: 17000 nM
- ED50 (5HT2 [4]): > 0.3 mg/kg
- IC50 (5HT1A receptor; 3H-8-OH DPAT): 3000 nM
- IC50 (5HT2 [1]): 1.8 nM

SMILES: Cc1scc2[nH]c(=O)n(CCN3CCC(=C(c4ccc(F)cc4)c4ccc(F)cc4)CC3)c(=O)c12 [Example 17]
- Inhibit. of 5-HTP-Head Twitch (result in words) (serotonin receptors): Inact.
- inhibition at 1 µM (5HT1A receptor; [6]): 0%
- IC50 (5HT2 [1]): 32 nM

SMILES: O=c1[nH]c2cscc2c(=O)n1CCCCCN1CCC(=C(c2ccc(F)cc2)c2ccc(F)cc2)CC1 [Example 20, 3-[5-[4-[Bis(4-fluorophenyl)methylene]piperidin-1-yl]pentyl]thieno[3,4-d]pyrimidine-2,4-dione]
- IC (10-fold shift) [2]: 0.085 µM
- IC50 [3]: 300 nM
- IC50 (5HT1A receptor; 3H-8-OH DPAT): 270 nM
- IC50 (5HT2 [1]): 650 nM

SMILES: O=c1[nH]c2cscc2c(=O)n1CCN1CC=C(c2ccccc2)CC1 [Example 24, 3-[2-[4-Phenyl-1,2,3,6-tetrahydropyridin-1-yl]ethyl]thieno[3,4-dy]pyrimidine-2,4-dione]
- Inhibit. of 5-HTP-Head Twitch (result in words) (serotonin receptors): Inact.
- inhibition at 1 µM (5HT1A receptor; read-out: Brain 5-HT1 Receptor % displaced (% inhibition)): 53%
- IC50 (5HT2 [1]): 29 nM

SMILES: CC(C)(C)C(=O)n1c(=O)n(CCN2CCC(C(=O)c3ccc(F)cc3)CC2)c(=O)c2cscc21 [Example 13]
- IC (10-fold shift) [2]: 0.03 µM
- Inhibit. of 5-HTP-Head Twitch ED50 (serotonin receptors): 1.98 mg/kg, p.o.
- inhibition at 1 µM (5HT1A receptor; [6]): 31%
- IC50 (5HT2 [1]): 15 nM

SMILES: O=C(c1ccccc1)n1c(=O)n(CCN2CCC(=C(c3ccc(F)cc3)c3ccc(F)cc3)CC2)c(=O)c2cscc21 [Example 8]
- IC (10-fold shift) [2]: 0.01 µM
- Inhibit. of 5-HTP-Head Twitch (result in words) (serotonin receptors): Inact.
- ED50 (5HT2 [4]): 0.038 mg/kg
- inhibition at 1 µM (5HT1A receptor; [6]): 0%
- IC50 (5HT2 [1]): 200 nM

SMILES: O=C(c1ccc(F)cc1)C1CCN(CCCCn2c(=O)[nH]c3cscc3c2=O)CC1 [Example 19, 3-[4-[4-(4-Fluorobenzoyl)piperidin-1-yl]butyl]thieno[3,4-d]pyrimidine-2,4-dione]
- Inhibit. of 5-HTP-Head Twitch ED50 (serotonin receptors): 1-10 mg/kg, p.o.
- IC50 (5HT1A receptor; 3H-8-OH DPAT): 210 nM
- IC50 (5HT2 [1]): 12.5 nM

SMILES: O=C(c1ccc(F)cc1)C1CCN(CCn2c(=O)c3cscc3n(C(=O)c3ccccc3)c2=O)CC1 [Example 12, 1-Benzoyl-3-[2-[4-(4-fluorobenzoyl)piperidin-1-yl]ethyl]thieno[3,4-d]pyrimidine-2,4-dione]
- IC50 [3]: 100 nM
- Inhibit. of 5-HTP-Head Twitch ED50 (serotonin receptors): 1.74 mg/kg, p.o.
- 5-HT-Induced Pressor Response, % attenuation (5HT2 [4]; @ 0.3 (mg/kg), anesthetized SHR, 5HT 100 μg/kg i.v.): 44%
- inhibition at 1 µM (5HT1A receptor; [6]): 24%
- IC50 (5HT2 [1]): 8.5 nM

SMILES: CCCCn1c(=O)n(CCN2CCC(C(=O)c3ccc(F)cc3)CC2)c(=O)c2cscc21 [Example 15, 1-Butyl-3-[2-[4-(4-fluorobenzoyl)piperidin-1-yl]ethyl]thieno[3,4-d]pyrimidine-2,4-dione 1/4 Hydrate]
- Inhibit. of 5-HTP-Head Twitch ED50 (serotonin receptors): 1-10 mg/kg, p.o.
- inhibition at 1 µM (5HT1A receptor; [6]): 0%
- IC50 (5HT2 [1]): 450 nM

SMILES: O=C(c1ccc(F)cc1)C1CCN(CCn2c(=O)[nH]c3sccc3c2=O)CC1 [Example 2, 3-[2-[4-(4-Fluorobenzoyl)piperidin-1-yl]ethyl]thieno[2,3-d]pyrimidine-2,4-dione]
- Inhibit. of 5-HTP-Head Twitch ED50 (serotonin receptors): 0.26 mg/kg, p.o.
- ED50 (5HT2 [4]): 0.016 mg/kg
- Phenylephrine-Induced Pressor Response ED50 [5]: < 3.0 mg/kg
- inhibition at 10 µM (5HT1A receptor; @ 10 μM, 3H-8-OH DPAT, read-out: Brain 5-HT1 Receptor % displaced (% inhibition)): 24%
- IC50 (5HT2 [1]): 1.6 nM
